Literature values as cited in patent US7097855B1, “Transdermal thermal polymerization” (Massachusetts Institute of Technology, priority 2000, dated 2006).

Key:
[1] = at 20° C.

**Q.** For `CC(C)(N=NC(C)(C)C1=NCCN1)C1=NCCN1.Cl.Cl` [AZODIA HCl, 2,2′-azobis-(N,N′-dimethyleneisobutyramidine) dihydrochloride], which water solubility [1] is on record?
**A.** 35.2 g/100 g solvent

**Q.** And the “LD50 (oral, rat), female” value (rat; female)?
**A.** 2800 mg/kg

**Q.** What about the “LD50 (oral, rat), male” value (rat; male) of the same compound?
**A.** 3200 mg/kg
